Laboratory results from PMC10534581 (Pharmaceutics, 2023).

Tests used:
children and adolescents [1] = assay: Adverse effects on Pediatric Adverse Event Rating Scale (PAERS), maximal severity; format: in vivo, human; conditions: n = 134 (4 missing); for patients with PAERS max. severity 'none' (no adverse effects): FLX 10–40 mg/day
Protocol: On the day of blood collection, treatment responses were measured using the Clinical Global Impression (CGI) Scale (Improvement, CGI-I), which clinicians were instructed to rate solely based on the effects of the drug. […] This instrument was specifically designed to quantify the severity of 56 signs of adverse events occurring in pediatric patients under treatment with a psychotropic drug. The 56 items were rated on a Likert scale with 'none', 'slight', 'moderate', 'severe', and 'extremely severe' responses. The maximal severity on any of the items was considered in this study. […] Additionally, indications for the TDM measurement, detailed information on concomitant medications, nicotine use, weight, and height were also recorded. […] All statistical analyses were performed using R (R Foundation for Statistical Computing) version 4.1.1. The alpha level for all analyses was set to 0.05. To maximize the comparability of the conclusions from the dataset generated in this study, the main analyses were performed with both the last valid timepoint, as in previous relevant studies, and with all the valid timepoints, as detailed in the next paragraph. […] As not all the assumptions were met by the original data, a square-root transformation was applied to the outcome variables. In addition to the simple linear regressions, multiple linear regressions were performed with four additional hypothesized predictors: age (years), sex (male/female), body weight (kg), and smoking status (yes/no). The variance inflation factor (VIF) was evaluated as a measure of multicollinearity. Both regressions were compared based upon model fit. Second, proportional odds models using the clm (cumulative link models) function in the 'ordinal' R package were fitted to examine the serum concentrations as predictors of clinical effects (measured by CGI-I) and adverse effects (measured by PAERS-maximal severity). As there was only a single 'very severe' PAERS response, 'very severe' and 'severe' responses were pooled together. The analyses were repeated with an extended set of hypothesized predictors. For CGI-I, these were age, sex, psychotropic co-medication (i.e., antipsychotic and antidepressant drug), and diagnostic comorbidity (i.e., a single diagnosis versus multiple diagnoses). For PAERS, the predictors were age, sex, and psychotropic co-medication. The proportional odds assumptions in these statistics were verified with likelihood ratio tests using the nominal_test and scale_test functions, while model convergence was tested with the convergence function. […] The clmm (cumulative link mixed models) function from the 'ordinal' package was used to test the impact of metabolite level on clinical and adverse effects with CGI-I and […] […]

[2] = Steady-state trough serum concentration (TDM, HPLC with UV detection); format: in vivo, human; conditions: for Est. of Dose on square-root serum concentration, multiple linear regression / Est. of Body weight on square-root serum concentration, multiple linear regression: Model 1, last datapoint, sex, smoking; for Est. of Dose on square-root serum concentration, multiple linear regression: covariates age, body weight; for Est. of Body weight on square-root serum concentration, multiple linear regression: covariates dose, age; for Est. of Body weight on square-root serum concentration, linear mixed effect model / Est. of Dose on square-root serum concentration, linear mixed effect model: Model 2, all datapoints, multiple predictors incl. time; for β of daily dose on square-root serum concentration, linear mixed-effect model: all datapoints, dose as only fixed predictor; for steady-state serum concentration, range / mean steady-state serum concentration, mean (SD): children and adolescents n = 138, last datapoint; for steady-state serum concentration, range: FLX 10–40 mg/day; for mean steady-state serum concentration, mean (SD): FLX 10–40 mg/day (mean 19.93 mg); for β of daily dose (mg) on square-root serum concentration, simple linear regression: last datapoints
Protocol: The study spanned three different routine healthcare settings, including inpatient, outpatient, and day-treatment units. […] All dosing steps were recorded along with corresponding dates in the medication protocol. […] Depending on the clinical course, additional visit times were possible.
TDM analysis was conducted according to the guidelines of the Working Group on Neuropsychopharmacology and Pharmacopsychiatry (AGNP) consensus. Blood samples were collected from cubital veins into 7.5-mL monovettes without any additives or anticoagulants at a steady-state trough level. The samples were immediately analyzed (in the case of samples from Wuerzburg, Germany) or analyzed after being received by the TDM laboratory in Wuerzburg, Germany, shipped by regular mail. […] Each analytical series included internal quality control samples, and external control samples were analyzed quarterly. The laboratory responsible for the analysis is certified by a quality control program (https://www.instand-ev.de, accessed on 2 July 2023; https://www.ukw.de/psychiatrie/zuweisende-kolleginnen-und-kollegen/tdm-labor/zertifikate/, accessed on 2 July 2023). Analytical grade chemicals and solvents were procured from Sigma-Aldrich Chemie GmbH (Taufkirchen, Germany).
All statistical analyses were performed using R (R Foundation for Statistical Computing) version 4.1.1. The alpha level for all analyses was set to 0.05. To maximize the comparability of the conclusions from the dataset generated in this study, the main analyses were performed with both the last valid timepoint, as in previous relevant studies, and with all the valid timepoints, as detailed in the next paragraph. […] The model assumptions were verified by means of the semi-automated diagnostic functions in the ‘gvlma’ (Global Validation of Linear Models Assumptions) R package, including evaluation of global statistics, skewness, kurtosis, link function, and heteroscedasticity parameters and inspection of the related plots. […] In addition to the simple linear regressions, multiple linear regressions were performed with four additional hypothesized predictors: age (years), sex (male/female), body weight (kg), and smoking status (yes/no). The variance inflation factor (VIF) was evaluated as a measure of multicollinearity. Both regressions were compared based upon model fit. Second, proportional odds models using the clm (cumulative link models) function in the ‘ordinal’ R package were fitted to examine the serum concentrations as predictors of clinical effects (measured by CGI-I) and adverse effects (measured by PAERS—maximal severity). […] The analyses were repeated with an extended set of hypothesized predictors. For CGI-I, these were age, sex, psychotropic co-medication (i.e., antipsychotic and antidepressant drug), and diagnostic comorbidity (i.e., a single diagnosis versus multiple diagnoses). For PAERS, the predictors were age, sex, and psychotropic co-medication. The proportional odds assumptions in these statistics were verified with likelihood ratio tests using the nominal_test and scale_test functions, while model convergence was tested with the convergence function.
The model with multiple predictors included the variables, as in the single timepoint analyses, as well as the data collection time (i.e., days from the baseline timepoint).
To determine a possible concentration threshold of efficacy, receiver operating curve (ROC) analyses were performed based on a binary logistic regression, and the optimal cutoff was calculated by finding an optimal trade-off between sensitivity and specificity.

children and adolescents [3] = assay: Treatment response on Clinical Global Impression-Improvement (CGI-I); format: in vivo, human
Protocol: On the day of blood collection, treatment responses were measured using the Clinical Global Impression (CGI) Scale (Improvement, CGI-I), which clinicians were instructed to rate solely based on the effects of the drug. […] This instrument was specifically designed to quantify the severity of 56 signs of adverse events occurring in pediatric patients under treatment with a psychotropic drug. The 56 items were rated on a Likert scale with 'none', 'slight', 'moderate', 'severe', and 'extremely severe' responses. The maximal severity on any of the items was considered in this study. […] Additionally, indications for the TDM measurement, detailed information on concomitant medications, nicotine use, weight, and height were also recorded. […] All statistical analyses were performed using R (R Foundation for Statistical Computing) version 4.1.1. The alpha level for all analyses was set to 0.05. To maximize the comparability of the conclusions from the dataset generated in this study, the main analyses were performed with both the last valid timepoint, as in previous relevant studies, and with all the valid timepoints, as detailed in the next paragraph. […] In addition to the simple linear regressions, multiple linear regressions were performed with four additional hypothesized predictors: age (years), sex (male/female), body weight (kg), and smoking status (yes/no). The variance inflation factor (VIF) was evaluated as a measure of multicollinearity. Both regressions were compared based upon model fit. Second, proportional odds models using the clm (cumulative link models) function in the 'ordinal' R package were fitted to examine the serum concentrations as predictors of clinical effects (measured by CGI-I) and adverse effects (measured by PAERS-maximal severity). […] The analyses were repeated with an extended set of hypothesized predictors. For CGI-I, these were age, sex, psychotropic co-medication (i.e., antipsychotic and antidepressant drug), and diagnostic comorbidity (i.e., a single diagnosis versus multiple diagnoses). For PAERS, the predictors were age, sex, and psychotropic co-medication. The proportional odds assumptions in these statistics were verified with likelihood ratio tests using the nominal_test and scale_test functions, while model convergence was tested with the convergence function. […] The clmm (cumulative link mixed models) function from the 'ordinal' package was used to test the impact of metabolite level on clinical and adverse effects with CGI-I and […] […] The model with multiple predictors included the variables, as in the single timepoint analyses, as well as the data collection time (i.e., days from the baseline timepoint). To determine a possible concentration threshold of efficacy, receiver operating curve (ROC) analyses were performed based on a binary logistic regression, and the optimal cutoff was calculated by finding an optimal trade-off between sensitivity and specificity. […] The last valid datapoints were included in these analyses as deemed most appropriate. Transdiagnostic responders and responders with depression ([…].X and […].X) were considered separately.

[4] = cited from earlier work
patients = test system: patients; set-up: method as in PMID 19723786, PMID 19934760; conditions: cited from earlier work
CYP2D6 = conditions: cited from earlier work
[5] = postmortem studies and case reports; cited from earlier work
[6] = Responders Transdiagnostic n = 64
[7] = Responders with Depression n = 44

Structure (SMILES)	Est. of Dose on square-root serum concentration, multiple linear regression [2]	Est. of Body weight on square-root serum concentration, multiple linear regression [2]	Est. of Body weight on square-root serum concentration, linear mixed effect model [2]	Est. of Dose on square-root serum concentration, linear mixed effect model [2]	serum concentration of responders, M+1SD (mean plus 1 standard deviation) [2, 6]	serum concentration of responders, M-1SD (mean minus 1 standard deviation) [2, 6]	serum concentration of responders, Q1 (first interquartile) [2, 6]	serum concentration of responders, Q3 (third interquartile) [2, 6]	serum concentration of responders, M+1SD (mean plus 1 standard deviation) [2, 7]	serum concentration of responders, M-1SD (mean minus 1 standard deviation) [2, 7]	serum concentration of responders, Q1 (first interquartile) [2, 7]	serum concentration of responders, Q3 (third interquartile) [2, 7]	β of daily dose on square-root serum concentration, linear mixed-effect model [2]	steady-state serum concentration, range [2]	mean steady-state serum concentration, mean (SD) [2]	β of daily dose (mg) on square-root serum concentration, simple linear regression [2]	half-life [4]	binding affinity to CYP2D6 (CYP2D6)	other results
CNCCC(Oc1ccc(C(F)(F)F)cc1)c1ccccc1 (centres unmarked) [FLX, Fluoxetine]	0.24	−0.07	−0.07	0.34	191.29 ng/mL	57.97 ng/mL	73 ng/mL	155 ng/mL	181.19 ng/mL	62.51 ng/mL	69.5 ng/mL	156.25 ng/mL	0.31	17 to 396 ng/mL	123.66 ± 65.17 ng/mL	0.18	96 to 140 h	high binding affinity	patients with PAERS max. severity 'extremely severe' (children and adolescents [1]): 1 (0.7%); patients with PAERS max. severity 'severe' (children and adolescents [1]): 2 (1.5%); patients with PAERS max. severity 'none' (no adverse effects) (children and adolescents [1]): 87 (64.9%); patients with PAERS max. severity 'none' (no adverse effects) (children and adolescents [1]; listed as fluoxetine): 64.9%; patients with CGI-I 'minimally improved' (children and adolescents [3]; n = 138, FLX 10–40 mg/day): 60 (43.5%); patients with CGI-I 'minimally worse' (children and adolescents [3]; n = 138, FLX 10–40 mg/day): 3 (2.2%); patients with CGI-I 'much worse' (children and adolescents [3]; n = 138, FLX 10–40 mg/day): 2 (1.4%); patients with CGI-I 'no change' (children and adolescents [3]; n = 138, FLX 10–40 mg/day): 8 (5.8%); patients with CGI-I 'very much worse' (children and adolescents [3]; n = 138, FLX 10–40 mg/day): 0 (0%); patients with CGI-I 'minimally improved' (children and adolescents [3]; n = 138, FLX 10–40 mg/day, listed as fluoxetine): 43.5%; patients with marked improvement (children and adolescents [3]; n = 138, much improved plus very much improved): 45.6%; absorption after oral administration [4]: almost completely absorbed; bioavailability ([4]; oral, reduced by hepatic first-pass metabolism): less than 90%; patients who do not respond to pharmacologic monotherapy (patients): 40–60%; inhibition of CYP2D6 (CYP2D6): potent inhibitor; serum levels in fatal overdoses [5]: 1300 to 7000 ng/mL
NCCC(Oc1ccc(C(F)(F)F)cc1)c1ccccc1 (centres unmarked) [NORFLX, Norfluoxetine]	0.21	−0.05	−0.05	0.26	218.24 ng/mL	85.28 ng/mL	102.5 ng/mL	186 ng/mL	223.57 ng/mL	78.88 ng/mL	98.75 ng/mL	184.25 ng/mL	0.25	21 to 339 ng/mL	144.74 ± 65.93 ng/mL	0.19	96 to 360 h	high binding affinity	relationship between serum level and therapeutic effect (CGI-I) (children and adolescents [3]; ordinal regressions): no significant relationship
